How the values were obtained:
[1] = system: IL-6 levels in human whole blood stimulated with a TLR2 agonist; assay: IRAK4 Whole Blood Assay (lipoteichoic acid/TLR2-stimulated IL-6); format: cell-based; details: Homo sapiens, lipoteichoic acid 10 μg/mL, IL-6 readout
Experimental: Human whole blood containing the anti-coagulant ACD-A was plated in 384-well plate (25 μL/well) and incubated with compounds for 60 minutes at 37° C. in a 5% CO2 incubator. The blood was stimulated with a TLR2 agonist, 10 μg/mL final concentration of lipoteichoic acid (Invivogen, San Diego, Calif.) in 25 μL RPMI (Gibco) for 5 hours in a 5% CO2 incubator. At the end of the incubation, plates were centrifuged at 2300 rpm for 5 minutes. Supernatants were harvested and analyzed for IL-6 levels by Flow Cytometry beads assay (BD Biosciences, San Jose, Calif.).

IRAK4 = IRAK4 (Homo sapiens (Human), UniProt Q9NWZ3); assay: IRAK4 Inhibition Assay; format: biochemical; details: ATP 500 μM; IRAK4 0.6 nM
How it was run: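 Readout: electrophoretic (LabChip) separation of fluorescent peptide substrate from phosphorylated product after EDTA quench. Reactions ran 60 min at room temperature with 0.6 nM IRAK4, 1.5 μM peptide and 500 μM ATP; inhibition referenced to no-enzyme (100%) and vehicle (0%) controls.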

Sequence of IRAK4 (Q9NWZ3 whole entry): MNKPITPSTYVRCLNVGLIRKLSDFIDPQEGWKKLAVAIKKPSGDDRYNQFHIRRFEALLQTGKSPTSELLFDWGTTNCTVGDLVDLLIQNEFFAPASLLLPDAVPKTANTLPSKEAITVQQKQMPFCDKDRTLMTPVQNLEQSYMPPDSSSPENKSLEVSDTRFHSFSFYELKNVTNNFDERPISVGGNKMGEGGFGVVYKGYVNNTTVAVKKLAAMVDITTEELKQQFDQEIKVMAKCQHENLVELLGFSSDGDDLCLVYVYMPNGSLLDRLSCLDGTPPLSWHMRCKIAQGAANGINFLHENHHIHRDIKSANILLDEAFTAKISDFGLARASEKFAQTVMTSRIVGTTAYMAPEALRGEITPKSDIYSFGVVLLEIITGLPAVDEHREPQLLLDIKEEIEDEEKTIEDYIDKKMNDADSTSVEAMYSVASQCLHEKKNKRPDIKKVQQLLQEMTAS

Row | SMILES | EC50 [1] | IC50 (IRAK4)
1 | CC(C)Nc1cc(-c2cnn3cc(Cl)cnc23)ncc1C(=O)N[C@H]1CC[C@H](C(=O)NC2CC2)CC1 [Example 28, 6-(6-chloropyrazolo[1,5-a]pyrimidin-3-yl)-N-((1r,4r)-4-(cyclopropylcarbamoyl)cyclohexyl)-4-(isopropylamino)nicotinamide] | 1920 nM | 5 nM
2 | O=C(N[C@H]1CC[C@H](C(=O)NC2CC2)CC1)c1cnc(-c2cnn3cc(Cl)cnc23)cc1NC1COC1 [Example 41, 6-(6-chloropyrazolo[1,5-a]pyrimidin-3-yl)-N-((1r,4r)-4-(cyclopropylcarbamoyl)cyclohexyl)-4-(oxetan-3-ylamino)nicotinamide] | 350 nM | 7 nM
3 | CC(C)(O)[C@H](F)CNC(=O)c1cnc(-c2cnn3cc(Cl)cnc23)cc1NCC1(O)CCC1 [Example 51, (R)-6-(6-chloropyrazolo[1,5-a]pyrimidin-3-yl)-N-(2-fluoro-3-hydroxy-3-methylbutyl)-4-(((1-hydroxycyclobutyl)methyl)amino)nicotinamide] | 1250 nM | 10 nM
4 | [2H]C([2H])([2H])OC(C)(C)[C@H](F)CNC(=O)c1cnc(-c2cnn3cc(Cl)cnc23)cc1NC(C)C [Example 57, (R)-6-(6-chloropyrazolo[1,5-a]pyrimidin-3-yl)-N-(2-fluoro-3-trideuteromethoxy-3-methylbutyl)-4-(isopropylamino)nicotinamide] | 2340 nM | 3 nM
5 | CC(C)(O)[C@H](F)CNC(=O)c1cnc(-c2cnn3cc(Cl)cnc23)cc1NC12CC(C1)C2 [Example 75, (R)-4-(bicyclo[1.1.1]pentan-1-ylamino)-6-(6-chloropyrazolo[1,5-a]pyrimidin-3-yl)-N-(2-fluoro-3-hydroxy-3-methylbutyl)nicotinamide] | 1460 nM | 2 nM
6 | CC1(Nc2cc(-c3cnn4cc(Cl)cnc34)ncc2C(=O)NC[C@@H](F)C(C)(C)O)CC1 [Example 80, (R)-6-(6-chloropyrazolo[1,5-a]pyrimidin-3-yl)-N-(2-fluoro-3-hydroxy-3-methylbutyl)-4-((1-methylcyclopropyl)amino)nicotinamide] | 840 nM | 6 nM
7 | CC(C)(O)[C@H]1CC[C@H](NC(=O)c2cnc(-c3cnn4cc(C#N)cnc34)cc2NC2COC2)CC1 [Example 120, 6-(6-cyanopyrazolo[1,5-a]pyrimidin-3-yl)-N-((1r,4r)-4-(2-hydroxypropan-2-yl)cyclohexyl)-4-(oxetan-3-ylamino)nicotinamide] | 800 nM | 9 nM
8 | CC(C)Nc1cc(-c2ccn(-c3ccncc3)n2)ncc1C(=O)NC[C@@H](F)C(C)(C)O [Example 156, (R)—N-(2-fluoro-3-hydroxy-3-methylbutyl)-4-(isopropylamino)-6-(1-(pyridin-4-yl)-1H-pyrazol-3-yl)nicotinamide] | 2340 nM | 14 nM
9 | CC(C)Nc1cc(-c2cnn3cc(Cl)cnc23)ncc1C(=O)NC[C@@H](F)C(C)(C)OC(F)F [Example 157, (R)-6-(6-chloropyrazolo[1,5-a]pyrimidin-3-yl)-N-(3-(difluoromethoxy)-2-fluoro-3-methylbutyl)-4-(isopropylamino)nicotinamide] | 930 nM | 3 nM
10 | CC(F)CCNc1cc(-c2cnn3cc(Cl)cnc23)ncc1C(=O)NC[C@@H](F)C(C)(C)O (stereo partly drawn) [Example 160, 6-(6-chloropyrazolo[1,5-a]pyrimidin-3-yl)-N—((R)-2-fluoro-3-hydroxy-3-methylbutyl)-4-((3-fluorobutyl)amino)nicotinamide] | 810 nM | 6 nM
11 | CCO[C@H]1CC[C@H](NC(=O)c2cnc(-c3cnn4cc(Cl)cnc34)cc2NC(C)C)CC1 [Example 166, 6-(6-chloropyrazolo[1,5-a]pyrimidin-3-yl)-N-((1r,4r)-4-ethoxycyclohexyl)-4-(isopropylamino)nicotinamide] | 660 nM | 5 nM
12 | CC(=O)N[C@H](C)CCNC(=O)c1cnc(-c2cnn3cc(Cl)cnc23)cc1NC(C)C [Example 167, (R)—N-(3-acetamidobutyl)-6-(6-chloropyrazolo[1,5-a]pyrimidin-3-yl)-4-(isopropylamino) nicotinamide] | 550 nM | 5 nM
13 | CC(C)Nc1cc(-c2cnn3cc(Cl)cnc23)ncc1C(=O)NCCCS(C)(=O)=O [Example 168, 6-(6-chloropyrazolo[1,5-a]pyrimidin-3-yl)-4-(isopropylamino)-N-(3-(methylsulfonyl)propyl)nicotinamide] | 760 nM | 16 nM
14 | CC(C)Nc1cc(-c2cnn3cc(C#N)cnc23)ncc1C(=O)NC[C@@H](F)C(C)(C)OC(F)F [Example 170, (R)-6-(6-cyanopyrazolo[1,5-a]pyrimidin-3-yl)-N-(3-(difluoromethoxy)-2-fluoro-3-methylbutyl)-4-(isopropylamino)nicotinamide] | 820 nM | 5 nM
15 | CC(C)Nc1cc(-c2cnc3cc(C#N)cnn23)ncc1C(=O)NCC(F)(F)C(C)(C)O [Example 173, 6-(7-cyanoimidazo[1,2-b]pyridazin-3-yl)-N-(2,2-difluoro-3-hydroxy-3-methylbutyl)-4-(isopropylamino)nicotinamide] | 830 nM | 6 nM
16 | COC(C)(C)[C@H]1CC[C@H](NC(=O)c2cnc(-c3cnc4cc(C#N)cnn34)cc2NC(C)C)CC1 [Example 174, 6-(7-cyanoimidazo[1,2-b]pyridazin-3-yl)-4-(isopropylamino)-N-((1r,4r)-4-(2-methoxypropan-2-yl)cyclohexyl)nicotinamide] | 710 nM | 4 nM
17 | CC(C)(O)[C@H](F)CNC(=O)c1cnc(-c2cnc3cc(Cl)cnn23)cc1N[C@H]1CC[C@H](C(C)(C)F)CC1 [Example 175, 6-(7-chloroimidazo[1,2-b]pyridazin-3-yl)-N—((R)-2-fluoro-3-hydroxy-3-methylbutyl)-4-(((1r,4R)-4-(2-fluoropropan-2-yl)cyclohexyl)amino)nicotinamide] | 480 nM | 3 nM

Continued, values first:

Row | EC50 [1] | IC50 (IRAK4) | SMILES
18 | 2440 nM | 2 nM | CC(C)(O)[C@H](F)CNC(=O)c1cnc(-c2cnn3cc(Cl)cnc23)cc1Nc1cccc(C#N)c1F [Example 35, (R)-6-(6-chloropyrazolo[1,5-a]pyrimidin-3-yl)-4-((3-cyano-2-fluorophenyl)amino)-N-(2-fluoro-3-hydroxy-3-methylbutyl)nicotinamide]
19 | 860 nM | 6 nM | C[C@H](CO)Nc1cc(-c2cnn3cc(C#N)cnc23)ncc1C(=O)NC[C@@H](F)C(C)(C)O [Example 98, 6-(6-cyanopyrazolo[1,5-a]pyrimidin-3-yl)-N—((R)-2-fluoro-3-hydroxy-3-methylbutyl)-4-(((R)-1-hydroxypropan-2-yl)amino)nicotinamide]
20 | 600 nM | 4 nM | CC(C)(O)[C@H](F)CNC(=O)c1cnc(-c2cnn3cc(C#N)cnc23)cc1NC1COC1 [Example 99, (R)-6-(6-cyanopyrazolo[1,5-a]pyrimidin-3-yl)-N-(2-fluoro-3-hydroxy-3-methylbutyl)-4-(oxetan-3-ylamino) nicotinamide]
21 | 1640 nM | 7 nM | CC(C)(O)[C@H](F)CNC(=O)c1cnc(-c2cnn3cc(C#N)cnc23)cc1N[C@@H](CO)Cc1ccccc1 [Example 101, 6-(6-cyanopyrazolo[1,5-a]pyrimidin-3-yl)-N—((R)-2-fluoro-3-hydroxy-3-methylbutyl)-4-(((R)-1-hydroxy-3-phenylpropan-2-yl)amino)nicotinamide]
22 | 440 nM | 5 nM | CC(C)(O)[C@H](F)CNC(=O)c1cnc(-c2cnn3cc(C#N)cnc23)cc1N[C@@H]1CCN(c2ncc(F)cn2)C1 [Example 109, 6-(6-cyanopyrazolo[1,5-a]pyrimidin-3-yl)-N—((R)-2-fluoro-3-hydroxy-3-methylbutyl)-4-(((R)-1-(5-fluoropyrimidin-2-yl)pyrrolidin-3-yl)amino)nicotinamide]
23 | 900 nM | 3 nM | CC(C)(O)[C@H](F)CNC(=O)c1cnc(-c2cnn3cc(C#N)cnc23)cc1Nc1cccc(C(N)=O)c1 [Example 111, (R)-4-((3-carbamoylphenyl)amino)-6-(6-cyanopyrazolo[1,5-a]pyrimidin-3-yl)-N-(2-fluoro-3-hydroxy-3-methylbutyl)nicotinamide]
24 | 480 nM | 3 nM | CC(C)(CO)Nc1cc(-c2cnn3cc(C#N)cnc23)ncc1C(=O)NC[C@@H](F)C(C)(C)O [Example 114, (R)-6-(6-cyanopyrazolo[1,5-a]pyrimidin-3-yl)-N-(2-fluoro-3-hydroxy-3-methylbutyl)-4-((1-hydroxy-2-methylpropan-2-yl)amino)nicotinamide]
25 | 710 nM | 9 nM | CC(C)(O)[C@H](F)CNC(=O)c1cnc(-c2cnn3cc(C#N)cnc23)cc1N[C@@H]1CCN(c2ncccn2)C1 [Example 118, 6-(6-cyanopyrazolo[1,5-a]pyrimidin-3-yl)-N—((R)-2-fluoro-3-hydroxy-3-methylbutyl)-4-(((R)-1-(pyrimidin-2-yl)pyrrolidin-3-yl)amino)nicotinamide]
26 | 470 nM | 6 nM | CO[C@H]1CC[C@H](Nc2cc(-c3cnn4cc(Cl)cnc34)ncc2C(=O)NC[C@@H](F)C(C)(C)O)CC1 [Example 165, 6-(6-chloropyrazolo[1,5-a]pyrimidin-3-yl)-N—((R)-2-fluoro-3-hydroxy-3-methylbutyl)-4-(((1r,4R)-4-methoxycyclohexyl)amino)nicotinamide]
